This note sets out measurements from US7273723B2, “Antibiotic-based gene regulation system” (priority 2001, dated 2007).

Assay [1] deals with ET1 / plant promoters PETRp1, PETRp8. Put plainly: EpOFF erythromycin-repressible GUS expression in Nicotiana tabacum SR1 suspension cells. In kind it is cell-based. The conditions noted are these: erythromycin 250 μg/ml, 48 hours. On the procedure:
The transformation protocol of SR1 cells was adapted from Wu and Feng (1999, Plant Cell Reports 18: 381-386). In brief, 200 mg of exponentially growing SR1 cells were harvested by centrifugation. The cells were incubated for 15 min. in 2% DMSO and washed twice in fresh medium. Cells were subsequently resuspended in electroporation buffer (5 mM CaCl2; 10 mM NaCl2; 0.4 M sucrose; 8.7% glycerol; 4 mM ascorbate; 10 mM HEPES; pH 6.8) and mixed with desired DNA at a concentration of 0.2 μg/μl. The cell-DNA mixture was incubated for 10 min. on ice electroporated at 700 V/cm and 980 μF using a BioRad Gene Pulser and appropriate cuvettes. […]
Transformed SR1 cells were incubated at 25° C. for 48 h while rocking at 110 rpm. […] Protein concentration of plant extracts was determined using a Bradford assay (Bradford, 1976, Anal. Biochem. 72: 248-254). […] The fluorescence time course was determined using typical 365 nm/455 nm excitation/emission profiles and a Shimadzu RF-5001 PC spectrofluorophotometer.
pBP6 (PCaMV35S-ET1-pAocs, FIG. 9a) was cotransformed either with pBP 18 (PETRp1-GUS-pA35S; FIG. 9b) or pBP36 (PETRp8-GUS-pA35S; FIG. 9b) by electroporation into the Nicotiana tabacum cell line SR1. GUS activity was assessed after 48 hours using a fluorescence-based detection technology.

For another assay, the system named is ET1/PETR3. Put plainly: Dose-response of EM-dependent SEAP expression in stable CHO-ET11-SEAP. The assay is classed as cell-based, Chinese hamster ovary cells. The conditions noted are these: 48 h. Here is the method:
The cell line CHO-ET1-SEAP1 was grown for 48 h at different EM concentrations (ng/ml). The relative SEAP production is shown over 5 orders of magnitude of EM concentration.
(§1) Chinese hamster ovary cells (CHO-K1, ATCC: CCL 61), and HeLa cells (ATCC: CRL-7923) as well as stable cell lines derived thereof were cultured as described before (Fussenegger et al., 1998, Nat. Biotechnol. 16,468-472) in the presence of appropriate antibiotics: G418 400 μg/ml; zeocin 100 μg/ml. Optimized CaPO4 protocols were used for high efficiency transient transfection of all cell lines (Fussenegger et al., 1998. Nat. Biotechnol. 16: 468-472). Transiently transfected cells were routinely analyzed after 48 h for CFP or SEAP expression using fluorescence microscopy and p-nitrophenolphosphate-based light absorbance timecourse, respectively, as described before (Fussenegger et al., 1998, Nat. Biotechnol. 16, 468-472; Berger et al., 1988, Gene 66, 1-10 b). For construction of stable CHO-ET1 and CHO-Triplet42 cell lines, CHO-Ki and CHO-TWIN1108 (Disclosed in PCT application no. 00/65080) were cotransfected with pWW35 and pZeoSV2 (invitrogen). CHO-ET11-SEAP was constructed by cotransfection of pWW38 and pSV2neo (Clontech) into CHO-ET11. The mixed populations were cloned using FACS-mediated single-cell-sorting (FACStar^Plus; Beckton Dickinson). For assessment of dose-response characteristics of PETR3-regulated gene expression, CHO-ET11-SEAP were cultured at cell densities of 50,000/ml for 48 h at various EM concentrations.
Varying the concentrations of EM used for induction could control the levels of PETR3-regulated gene expression. This was assessed using a stable CHO cell line (CHO-ET11-SEAP) which expresses PETR3-SEAP (pWW38) and stably contains also a constitutive ET1 expression vector (pWW35). […] Increasing EM concentration above 10 ng/ml leads to a gradual decrease in SEAP expression, with lowest SEAP expression levels at EM concentrations over 1000 ng/ml. […]

Assay [2] deals with erythromycin-dependent transactivators ET (MphR(A) fusions) / PETR promoters. Put plainly: SEAP reporter assay, CHO-K1 transiently cotransfected with ET transactivator and PETR-SEAP plasmids. The assay is classed as cell-based, Chinese hamster. On the procedure: as §1
Other antibiotics were eluted from antibiotic test discs (Mast Diagnostica GmbH, Reinfeld, Germany, or bioMérieux, Geneva Switzerland) in cell culture medium at 37° C. for 12 h to reach a final concentration of 30 μg/ml. All macrolide antibiotics were used at a 2 μg/ml concentration unless indicated otherwise.
In order to analyze the potential of the MphR(A)/ETR system for the design of a novel mammalian gene regulation system, we adapted these regulatory elements for use in a eukaryotic context by construction of a set of two chimeric determinants: the EM-inhibited transactivators (ET, MphR(A) fused to different eukaryotic transactivation domains: ET1: MphR(A)-VP16; ET2: MphR(A)-p65; ET3: MphR(A)-E2F4) and the EM-responsive promoter (PETR3) (ETR fused to the minimal cytomegalovirus PhCMVmin; Gossen et al., (1992). Proc. Natl. Acad. Sci. USA 89, 5547-5551). […] CFP-expression could only be detected when pWW44 was cotransfected with an ET1-encoding pWW35, showing that the chimeric ET1 protein functions as a transactivator for PETR3 in mammalian cells.
To analyze the regulatory performance of promoters PETR1 and PETR4, an ET1-encoding vector (pWW35) was cotransfected with pWW36 and pWW39 into CHO-K1 cells. […] The results are shown in Table 6 together with the values of an ET1/PETR3 transfection (Table 5) for better comparison.

For the compound `CC[C@H]1OC(=O)[C@H](C)[C@@H](O[C@H]2C[C@@](C)(OC)[C@@H](O)[C@H](C)O2)[C@H](C)[C@@H](O[C@@H]2O[C@H](C)C[C@H](N(C)C)[C@H]2O)[C@](C)(O)C[C@@H](C)C(=O)[C@H](C)[C@@H](O)[C@]1(C)O` [Erythromycin], the “GUS expression level in the presence of erythromycin” value is 32.2±3.9 pmoles 4-MU min^−1 mg^−1 protein^−1 in assay [1] (pBP6 + pBP18 (PETRp1)) and 44.2±4.6 pmoles 4-MU min^−1 mg^−1 protein^−1 in assay [1] (pBP6 + pBP36 (PETRp8)). In addition, the “EM concentration at which ET1/PETR3 is fully induced” value in the assay on ET1/PETR3 was less than 10 ng/mL. For the same compound, the “EM concentration at which ET1/PETR3 is repressed (lowest SEAP expression)” value with ET1/PETR3 was more than 1000 ng/mL. For the same compound, in the assay with ET1/PETR3, the “EM concentration window in which gene expression can be adjusted to different levels” value was 10 to 1000 ng/mL. For the same compound, the “SEAP activity [U/L] + Erythromycin [10 μg/ml]” value in assay [2] (CHO + pBP37 + pWW38 (ET5 + PETR3), 48 hr) is given as 12.1 ± 1.5 U/L; in assay [2] (CHO + pBP38 + pWW38 (ET6 + PETR3), 48 hr), 5.8 ± 0.5 U/L; in assay [2] (CHO + pBP39 + pWW38 (ET7 + PETR3), 48 hr), 2.3 ± 0.2 U/L; in assay [2] (CHO + pWW35 + pWW36 (ET1 + PETR1-SEAP), 48 hrs), 5.3 ± 0.6 U/L; in assay [2] (CHO + pWW35 + pWW38 (ET1 + PETR3), 48 hr post transfection), 5.2 ± 0.5 U/L; in assay [2] (CHO + pWW35 + pWW39 (ET1 + PETR4-SEAP), 48 hrs) it was 29.3 ± 0.6 U/L. For the same compound, the “SEAP activity [U/L] + Erythromycin [10 μg/ml]” value in assay [2] (CHO + pWW42 + pWW38 (ET2 + PETR3), 48 hr) is listed as 2.5 ± 0.6 U/L; in assay [2] (CHO + pWW64 + pWW38 (ET3 + PETR3), 48 hr), 1.0 ± 0.4 U/L.
